Results reported in patent US11554097B2, “Recombinant production of hybrid lipid-biopolymer materials that self-assemble and encapsulate agents” (Duke University, priority 2017, dated 2023).

How the values were obtained:
[1] = Encapsulated drug stability, dialysis against PBS; assay type: physicochemical
Description: Encapsulated drug stability: To measure the encapsulated drug's stability, we selected the encapsulated DOX M-EL[…],80 sample as a model system. […] Free DOX and encapsulated DOX were both made to 400 μM and 250 μL was added with a syringe to small volume Slide-a-Lyzer dialysis cassettes with a 3,500 Da molecular weight cutoff. […] At various time points, 3 mL of the filtrate was removed and replaced with fresh PBS. The fluorescence of the starting sample, filtrate, and retentate were measured in duplicate with a Wallac 1420 Victor3 Plate Reader (Perkin Elmer). Relative fluorescing units were converted to DOX concentrations using a standard curve made using serial dilution of free and encapsulated DOX. […] The cumulative DOX released was calculated and plotted as a function of dialysis time. […] At the end of the one week study, the retentate from each sample was removed and measured.

[2] = cited from earlier work

COc1cccc2c1C(=O)c1c(O)c3c(c(O)c1C2=O)C[C@@](O)(C(=O)CO)C[C@@H]3O[C@H]1C[C@H](N)[C@H](O)[C@H](C)O1 [DOXFree, doxorubicin]
DOX filtered out of cassette ([1]; after a week at 37° C.): 99%
time to reach equilibrium in dialysis ([1]; dialysis against PBS, 37° C.): ≤ 24 h
octanol-water distribution coefficient (log D pH 7.5) [2]: 2.4
